Reference: patent publication US20130259884A1, “PEPTIDES” ([…] SL, priority 2010, published 2013)
Where a SMILES comes first, the peptide text is derived from it.

Experiment: Water solubility of peptides when preparing stock solutions
Assay type: physicochemical
Details: stock solution in sterile distilled water or 100% DMSO; read-out: solubility of peptide (water soluble or water insoluble, dissolved in DMSO)
Experimental: For challenge, peptides were administered as follows: • Individual peptides (soluble). Individual water soluble peptides were dissolved as 10, 5 or 2.5 mg/ml stock solutions in sterile distilled water. Before use, each peptide was diluted in water to 2 mg/ml and 10 μl of this 2 mg/ml mix was added to 990 μl of media. Then 100 μl of this peptide/media mix was added to 100 μl of media containing 350,000 PBMC in an ELISPOT anti-IL-4 coated cell culture plate well for a final peptide concentration of 10 μg/ml. Identically diluted media only was added to the cells and used for the no peptide media control wells (media only). • Individual peptides (DMSO). Individual water insoluble peptides were dissolved in 100% DMSO to a stock concentration of 50 mg/ml. Before use each peptide was diluted in water to 2 mg/ml and then 10 μl of the 2 mg/ml mix was added to 990 μl of cell-culture media. Then 100 μl of this peptide/media mix was added to 100 μl of media containing 350,000 PBMC in an ELISPOT anti-IL-4 coated cell culture plate well for a final peptide concentration of 10 μg/ml. Identically diluted media only was added to the cells and used for the no peptide media control wells (media only). • A combination preparation containing Alt a 1 soluble peptides (33.2, 34.3, 35.4, 35.5, 37.3.1, 37.4.1, L6-5.01, L10-1.01, L10-2.01, L10-3), called Alt a 1 Sol. Each peptide was diluted from water stock to 2 mg/ml in sterile distilled water. Then 10 μl of each peptide required for the combined preparation was mixed and brought up to 1 ml in media. Then 100 μl of this peptide/media mix was added to 100 μl of media containing 350,000 PBMC in an ELISPOT anti-IL-4 coated cell culture plate well for a final concentration of each peptide of 10 μg/ml. Identically diluted media only was used for the no peptide control wells (media only). • A combination preparation containing Alt a 1 DMSO peptides (32.2.1, 38.2.1, 35.2, 35.3, L6-2, L6-3, L6-4, 38.3, 37.2), called Alt a 1 DMSO. Each peptide was diluted from DMSO stock to 2 mg/ml in sterile distilled water. Then 10 μl of each peptide required for the combined preparation was mixed and brought up to 1 ml in media. Then 100 μl of this peptide/media mix is added to 100 μl of media containing 350,000 PBMC in an ELISPOT anti-IL-4 coated cell culture plate well for a final concentration of each peptide of 10 μg/ml. Identically diluted media only was used for the no peptide control wells (media only). • A combination preparation containing non-Alt a 1 soluble peptides (40.2, 41.2, 43.2, 44.2, 46.2, 47.2.1, 56.2, 57.2.1, 60.2, 62.2.1, 67.2, 71.3), called Alt a Other Sol. Each peptide was diluted from water stock to 2 mg/ml in sterile distilled water. Then 10 μl of each peptide required for the combined preparation was mixed and brought up to 1 ml in media, Then 100 μl of this peptide/media mix was added to 100 μl of media containing 350,000 PBMC in an ELISPOT anti-IL-4 coated cell culture plate well for a final concentration of each peptide at 10 μg/ml. Identically diluted media only was used for the no peptide control wells (media only). • A combination preparation containing non-Alt a 1 DMSO peptides (39.2, 42.2, 45.2, 48.2.1, 50.2, 51.2.1, 61.2.1, 66.3.1, 68.2.1, 70.2, 71.2, 72.2), called Alt a Other DMSO. Each peptide was diluted from DMSO stock to 2 mg/ml in sterile distilled water. Then 10 ul of each peptide required for the combined preparation was mixed and brought up to 1 ml in media, Then 100 μl of this peptide/media mix was added to 100 μl of media containing 350,000 PBMC in an ELISPOT anti-IL-4 coated cell culture plate well for a final concentration of each peptide at 10 μg/ml. Identically diluted media only was used for the no peptide control wells (media only).
For `CC(C)C[C@H](NC(=O)[C@H](C)NC(=O)[C@H](CCCNC(=N)N)NC(=O)[C@H](C)N)C(=O)N[C@@H](CCCNC(=N)N)C(=O)N[C@@H](CCCNC(=N)N)C(=O)N[C@@H](CC(C)C)C(=O)N[C@@H](CCCNC(=N)N)C(=O)N[C@H](C(=O)N[C@@H](C)C(=O)N[C@@H](CS)C(=O)N[C@@H](CCC(=O)O)C(=O)N[C@@H](CCCNC(=N)N)C(=O)N[C@@H](C)C(=O)N[C@@H](CCCCN)C(=O)O)[C@@H](C)O` [Peptide 41.2, ARALRRLRTACERAK] (H-ARALRRLRTACERAK-OH; N-terminus and C-terminus assumed), the solubility was > 2500 µg/mL.
In the case of `CC[C@H](C)[C@H](NC(=O)[C@H](CCC(=O)O)NC(=O)[C@H](CC(=O)O)NC(=O)[C@@H]1CCCN1)C(=O)N[C@@H](CCC(N)=O)C(=O)NCC(=O)N[C@@H](Cc1ccccc1)C(=O)N1CCC[C@H]1C(=O)N[C@H](C(=O)N[C@H](C(=O)N[C@@H](CCCCN)C(=O)N[C@@H](CC(C)C)C(=O)N[C@@H](Cc1ccccc1)C(=O)N1CCC[C@H]1C(=O)N[C@@H](C)C(=O)O)[C@@H](C)CC)[C@@H](C)O` [Peptide 43.2, PDEIQGFPTIKLFPA] (H-PDEIQGFPTIKLFPA-OH), the solubility is reported as > 2500 µg/mL.
With `CC[C@H](C)[C@H](NC(=O)[C@H](CCC(N)=O)NC(=O)CNC(=O)[C@H](CO)NC(=O)[C@H](CCCNC(=N)N)NC(=O)[C@H](CC(C)C)NC(=O)CNC(=O)[C@@H](NC(=O)[C@@H](NC(=O)[C@@H](NC(=O)[C@H](CC(=O)O)NC(=O)[C@H](C)N)[C@@H](C)CC)C(C)C)C(C)C)C(=O)N[C@@H](CCCCN)C(=O)N[C@H](C(=O)NCC(=O)O)[C@@H](C)O` [Peptide 44.2, ADIVVGLRSGQIKTG] (H-ADIVVGLRSGQIKTG-OH) the solubility was > 2500 µg/mL.
In the case of `CC(C)C[C@H](NC(=O)[C@@H](NC(=O)CNC(=O)[C@@H](NC(=O)[C@H](CO)NC(=O)[C@@H](NC(=O)[C@H](Cc1ccccc1)NC(=O)[C@@H](NC(=O)CNC(=O)[C@H](C)N)C(C)C)C(C)C)[C@@H](C)O)[C@@H](C)O)C(=O)NCC(=O)NCC(=O)NCC(=O)N[C@@H](CCC(N)=O)C(=O)N[C@@H](CCC(=O)O)C(=O)O` [Peptide 45.2, AGVFVSTGTLGGGQE] (H-AGVFVSTGTLGGGQE-OH), the solubility is reported as < 2500 µg/mL.
In the case of `CC[C@H](C)[C@H](NC(=O)[C@@H](NC(=O)[C@@H](NC(=O)[C@H](CCCCN)NC(=O)CNC(=O)[C@@H](N)CCCCN)C(C)C)C(C)C)C(=O)N[C@H](C(=O)N[C@H](C(=O)NCC(=O)N[C@@H](C)C(=O)N[C@@H](CO)C(=O)NCC(=O)N1CCC[C@H]1C(=O)N[C@H](C(=O)NCC(=O)O)[C@@H](C)O)[C@@H](C)O)C(C)C` [Peptide 46.2, KGKVVIVTGASGPTG] (H-KGKVVIVTGASGPTG-OH), the solubility is reported as > 2500 µg/mL.
In the case of `CC[C@H](C)[C@H](NC(=O)[C@H](Cc1c[nH]cn1)NC(=O)CNC(=O)[C@H](CO)NC(=O)[C@H](CC(C)C)NC(=O)[C@H](CO)NC(=O)[C@H](CO)NC(=O)[C@@H](NC(=O)[C@@H](NC(=O)[C@@H](NC(=O)[C@H](CC(C)C)NC(=O)[C@H](CO)NC(=O)CNC(=O)[C@@H](N)[C@@H](C)O)C(C)C)[C@@H](C)CC)[C@@H](C)O)C(=O)N[C@@H](C)C(=O)O` [Peptide 47.2.1, TGSLVITSSLSGHIA] (H-TGSLVITSSLSGHIA-OH), the solubility is reported as > 2500 µg/mL.
In the case of `CC[C@H](C)[C@H](NC(=O)[C@H](C)NC(=O)[C@H](Cc1c[nH]c2ccccc12)NC(=O)[C@@H](N)C(C)C)C(=O)N[C@H](C(=O)N[C@@H](CC(C)C)C(=O)N[C@@H](CC(C)C)C(=O)N[C@@H](CO)C(=O)N[C@@H](CC(C)C)C(=O)N[C@H](C(=O)N[C@@H](CCC(N)=O)C(=O)N[C@@H](CC(C)C)C(=O)N[C@H](C(=O)N[C@H](C(=O)N1CCC[C@H]1C(=O)O)[C@@H](C)O)[C@@H](C)O)C(C)C)C(C)C` [Peptide 48.2.1, VWAIVLLSLVQLTTP] (H-VWAIVLLSLVQLTTP-OH), the solubility is reported as < 2500 µg/mL.
With `CC[C@H](C)[C@H](NC(=O)CNC(=O)[C@@H](N)C(C)C)C(=O)N[C@@H](Cc1ccccc1)C(=O)N[C@@H](CCCNC(=N)N)C(=O)N[C@@H](CC(=O)O)C(=O)N[C@@H](CC(=O)O)C(=O)N[C@@H](CCCNC(=N)N)C(=O)N[C@H](C(=O)N[C@@H](CCC(=O)O)C(=O)N[C@H](C(=O)N[C@H](C(=O)N[C@@H](C)C(=O)N[C@@H](CC(N)=O)C(=O)N[C@@H](CC(=O)O)C(=O)O)[C@@H](C)CC)[C@@H](C)CC)[C@@H](C)CC` [Peptide 50.2, VGIFRDDRIEIIAND] (H-VGIFRDDRIEIIAND-OH; N-terminus and C-terminus assumed) the solubility was < 2500 µg/mL.
In the case of `CC(C)C[C@H](NC(=O)[C@H](C)NC(=O)[C@@H](NC(=O)[C@H](CCC(N)=O)NC(=O)[C@H](CC(N)=O)NC(=O)[C@@H](N)CCCCN)C(C)C)C(=O)N[C@@H](CC(N)=O)C(=O)N1CCC[C@H]1C(=O)N[C@H](C(=O)N[C@@H](CC(N)=O)C(=O)N[C@H](C(=O)N[C@H](C(=O)N[C@@H](Cc1ccccc1)C(=O)N[C@@H](CC(=O)O)C(=O)N[C@@H](C)C(=O)O)C(C)C)[C@@H](C)O)C(C)C` [Peptide 51.2.1, KNQVALNPVNTVFDA] (H-KNQVALNPVNTVFDA-OH), the solubility is reported as < 2500 µg/mL.
With `CC[C@H](C)[C@H](NC(=O)[C@@H](NC(=O)[C@@H](NC(=O)[C@H](CC(C)C)NC(=O)[C@H](CCCCN)NC(=O)[C@H](CO)NC(=O)[C@@H](N)CC(C)C)C(C)C)[C@@H](C)O)C(=O)N[C@@H](C)C(=O)N[C@@H](CCCCN)C(=O)N[C@H](C(=O)N[C@@H](CC(=O)O)C(=O)N[C@@H](C)C(=O)N[C@H](C(=O)N[C@@H](CC(C)C)C(=O)N[C@@H](CC(N)=O)C(=O)O)[C@@H](C)O)C(C)C` [Peptide 56.2, LSKLVTIAKVDATLN] (H-LSKLVTIAKVDATLN-OH) the solubility was > 2500 µg/mL.
For `CC(C)C[C@H](NC(=O)CNC(=O)[C@H](CC(C)C)NC(=O)[C@H](CC(C)C)NC(=O)[C@H](CC(C)C)NC(=O)[C@H](Cc1ccc(O)cc1)NC(=O)[C@H](C)NC(=O)[C@H](C)NC(=O)[C@H](CC(C)C)NC(=O)[C@H](Cc1c[nH]cn1)NC(=O)[C@H](CCCCN)NC(=O)[C@@H](N)CC(C)C)C(=O)NCC(=O)NCC(=O)N[C@@H](CC(N)=O)C(=O)O` [Peptide 57.2.1, LKHLAAYLLLGLGGN] (H-LKHLAAYLLLGLGGN-OH), the solubility was > 2500 µg/mL.
With `CC(C)C[C@H](NC(=O)[C@H](C)NC(=O)[C@H](CCCCN)NC(=O)[C@H](CC(C)C)NC(=O)[C@H](CCCCN)NC(=O)[C@H](CCC(N)=O)NC(=O)[C@H](Cc1ccc(O)cc1)NC(=O)[C@@H](NC(=O)[C@H](CCC(=O)O)NC(=O)[C@H](C)N)C(C)C)C(=O)N[C@@H](C)C(=O)N[C@@H](CCCCN)C(=O)N[C@@H](CCCCN)C(=O)N[C@H](C(=O)N[C@@H](Cc1ccc(O)cc1)C(=O)O)[C@@H](C)O` [Peptide 60.2, AEVYQKLKALAKKTY] (H-AEVYQKLKALAKKTY-OH) the solubility was > 2500 µg/mL.
With `CC[C@H](C)[C@H](NC(=O)[C@H](C)N)C(=O)N[C@@H](CCC(=O)O)C(=O)N[C@@H](CC(C)C)C(=O)N[C@@H](CCCCN)C(=O)N[C@@H](CO)C(=O)N[C@H](C(=O)N[C@@H](CC(N)=O)C(=O)N[C@@H](C)C(=O)N[C@@H](CC(C)C)C(=O)N[C@@H](CC(C)C)C(=O)N[C@@H](CC(C)C)C(=O)N[C@@H](CCCCN)C(=O)N[C@H](C(=O)N[C@@H](CC(N)=O)C(=O)O)C(C)C)C(C)C` [Peptide 61.2.1, AIELKSVNALLLKVN] (H-AIELKSVNALLLKVN-OH) the solubility was < 2500 µg/mL.
